Source: PubChem BioAssay AID248 (DTP/NCI, 2004)
Values joined by “and” are separate entries in the source; they are usually repeats but may differ in a detail not shown here. Equal entries are not always repeated. Inconclusive results and toxic doses are left out. No stated cut-off is given here; in the data, active means T/C of 150% or more; inactive means T/C below 125%.

System: L1210 leukemia ip in BDF1 mice, survival T/C
Test: NCI In Vivo Anticancer Drug Screen. Data for tumor model L1210 Leukemia (intraperitoneal) in B6D2F1 (BDF1) mice
Conditions: higher = longer survival
Method in brief: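 Transplantable tumor model; survival measured in treated vs vehicle control mice. Value = treated/control.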

Measured: T/C

O=c1[nH]c(=O)n(C2CC(O)C(CO)O2)cc1F (configuration not stated)
inactive: endpoint: mean survival time, dose: 2.3 mg/kg/injection, schedule: Q01DX009 (ip), vehicle: saline 95 % of control and 100 % of control | endpoint: mean survival time, dose: 2.5 mg/kg/injection, schedule: Q01DX009 (ip), vehicle: saline 105 % of control | endpoint: mean survival time, dose: 3.12 mg/kg/injection, schedule: Q#A X Z (ip), vehicle: saline 109 % of control | endpoint: mean survival time, dose: 4.5 mg/kg/injection, schedule: Q01DX009 (ip), vehicle: saline 106 % of control | endpoint: mean survival time, dose: 5.0 mg/kg/injection, schedule: Q01DX009 (ip), vehicle: saline 103 % of control | endpoint: mean survival time, dose: 5.0 mg/kg/injection, schedule: Q01DX009 (oral), vehicle: saline 105 % of control | endpoint: mean survival time, dose: 6.25 mg/kg/injection, schedule: Q01DX Z (ip), vehicle: saline 105 % of control | endpoint: mean survival time, dose: 6.25 mg/kg/injection, schedule: Q#A X Z (ip), vehicle: saline 114 % of control | endpoint: mean survival time, dose: 9.0 mg/kg/injection, schedule: Q01DX009 (ip), vehicle: saline 103 % of control and 110 % of control | endpoint: mean survival time, dose: 10.0 mg/kg/injection, schedule: Q01DX005 (ip), vehicle: water 99 % of control and 102 % of control | endpoint: mean survival time, dose: 10.0 mg/kg/injection, schedule: Q01DX009 (ip), vehicle: saline 112 % of control | endpoint: mean survival time, dose: 10.0 mg/kg/injection, schedule: Q01DX009 (oral), vehicle: saline 98 % of control | endpoint: mean survival time, dose: 11.0 mg/kg/injection, schedule: Q07DX Z (ip), vehicle: saline 106 % of control | endpoint: mean survival time, dose: 12.5 mg/kg/injection, schedule: Q01DX Z (ip), vehicle: saline 111 % of control | endpoint: mean survival time, dose: 18.0 mg/kg/injection, schedule: Q04DX002 (ip), vehicle: saline 106 % of control and 115 % of control | endpoint: mean survival time, dose: 20.0 mg/kg/injection, schedule: Q01DX009 (oral), vehicle: saline 105 % of control | endpoint: mean survival time, dose: 20.0 mg/kg/injection, schedule: Q01DX015 (ip), vehicle: water 111 % of control | endpoint: mean survival time, dose: 20.0 mg/kg/injection, schedule: Q01DX Z (ip), vehicle: saline 105 % of control | endpoint: mean survival time, dose: 22.0 mg/kg/injection, schedule: Q07DX Z (ip), vehicle: saline 102 % of control | endpoint: mean survival time, dose: 25.0 mg/kg/injection, schedule: Q01DX006 (iv), vehicle: saline 110 % of control | endpoint: mean survival time, dose: 25.0 mg/kg/injection, schedule: Q01DX Z (ip), vehicle: saline 111 % of control | endpoint: mean survival time, dose: 25.0 mg/kg/injection, schedule: Q01DX Z (sc), vehicle: saline 111 % of control | endpoint: mean survival time, dose: 25.9 mg/kg/injection, schedule: Q01DX009 (ip), vehicle: saline 115 % of control | endpoint: mean survival time, dose: 29.0 mg/kg/injection, schedule: Q02DX008 (ip), vehicle: water 98 % of control | endpoint: mean survival time, dose: 30.0 mg/kg/injection, schedule: Q01DX015 (ip), vehicle: water 108 % of control | endpoint: mean survival time, dose: 30.0 mg/kg/injection, schedule: Q01DX Z (ip), vehicle: saline 106 % of control | endpoint: mean survival time, dose: 36.0 mg/kg/injection, schedule: Q04DX002 (ip), vehicle: saline 100 % of control and 110 % of control | endpoint: mean survival time, dose: 40.0 mg/kg/injection, schedule: Q01DX Z (ip), vehicle: saline 112 % of control | endpoint: mean survival time, dose: 42.0 mg/kg/injection, schedule: Q02DX008 (ip), vehicle: water 101 % of control | endpoint: mean survival time, dose: 44.0 mg/kg/injection, schedule: Q07DX Z (ip), vehicle: saline 106 % of control | endpoint: mean survival time, dose: 50.0 mg/kg/injection, schedule: Q01DX001 (ip), vehicle: saline 107 % of control | endpoint: mean survival time, dose: 50.0 mg/kg/injection, schedule: Q01DX Z (oral), vehicle: saline 107 % of control | endpoint: mean survival time, dose: 50.0 mg/kg/injection, schedule: Q02DX009 (ip), vehicle: saline 110 % of control | endpoint: mean survival time, dose: 50.0 mg/kg/injection, schedule: Q04DX003 (ip), vehicle: saline 105 % of control | endpoint: mean survival time, dose: 60.0 mg/kg/injection, schedule: Q## X004 (ip), vehicle: water 108 % of control | endpoint: mean survival time, dose: 63.0 mg/kg/injection, schedule: Q02DX008 (ip), vehicle: water 111 % of control | endpoint: mean survival time, dose: 75.0 mg/kg/injection, schedule: Q03DX006 (ip), vehicle: saline 111 % of control | endpoint: mean survival time, dose: 80.0 mg/kg/injection, schedule: Q01DX Z (ip), vehicle: saline 102 % of control | endpoint: mean survival time, dose: 80.0 mg/kg/injection, schedule: Q## X032 (ip), vehicle: water 108 % of control | endpoint: mean survival time, dose: 88.0 mg/kg/injection, schedule: Q07DX Z (ip), vehicle: saline 113 % of control | endpoint: mean survival time, dose: 90.0 mg/kg/injection, schedule: Q## X004 (ip), vehicle: water 98 % of control | endpoint: mean survival time, dose: 100.0 mg/kg/injection, schedule: Q01DX001 (ip), vehicle: saline 104 % of control and 110 % of control | endpoint: mean survival time, dose: 100.0 mg/kg/injection, schedule: Q01DX001 (ip), vehicle: water 100 % of control | endpoint: mean survival time, dose: 100.0 mg/kg/injection, schedule: Q01DX005 (ip), vehicle: saline 116 % of control | endpoint: mean survival time, dose: 100.0 mg/kg/injection, schedule: Q01DX Z (sc), vehicle: saline 111 % of control | endpoint: mean survival time, dose: 100.0 mg/kg/injection, schedule: Q04DX003 (ip), vehicle: saline 111 % of control | endpoint: mean survival time, dose: 100.0 mg/kg/injection, schedule: Q04DX005 (ip), vehicle: saline 115 % of control | endpoint: mean survival time, dose: 100.0 mg/kg/injection, schedule: Q#A X Z (ip), vehicle: saline 105 % of control | endpoint: mean survival time, dose: 125.0 mg/kg/injection, schedule: Q01DX001 (ip), vehicle: saline 112 % of control | endpoint: mean survival time, dose: 150.0 mg/kg/injection, schedule: Q01DX001 (ip), vehicle: water 102 % of control | endpoint: mean survival time, dose: 160.0 mg/kg/injection, schedule: Q01DX009 (ip), vehicle: saline 100 % of control | endpoint: mean survival time, dose: 160.0 mg/kg/injection, schedule: Q01DX009 (oral), vehicle: saline 101 % of control | endpoint: mean survival time, dose: 160.0 mg/kg/injection, schedule: Q01DX Z (ip), vehicle: saline 110 % of control | endpoint: mean survival time, dose: 175.0 mg/kg/injection, schedule: Q07DX003 (ip), vehicle: saline 114 % of control | endpoint: mean survival time, dose: 200.0 mg/kg/injection, schedule: Q01DX001 (ip), vehicle: saline 106 % of control and 107 % of control | endpoint: mean survival time, dose: 200.0 mg/kg/injection, schedule: Q01DX017 (ip), vehicle: saline 100 % of control | endpoint: mean survival time, dose: 200.0 mg/kg/injection, schedule: Q01DX Z (im), vehicle: saline 107 % of control | endpoint: mean survival time, dose: 200.0 mg/kg/injection, schedule: Q01DX Z (ip), vehicle: carboxymethylcellulose (CMC) 94 % of control | endpoint: mean survival time, dose: 200.0 mg/kg/injection, schedule: Q01DX Z (ip), vehicle: saline 102 % of control | endpoint: mean survival time, dose: 200.0 mg/kg/injection, schedule: Q01DX Z (sc), vehicle: saline 96 % of control | endpoint: mean survival time, dose: 200.0 mg/kg/injection, schedule: Q04DX002 (ip), vehicle: water 112 % of control | endpoint: mean survival time, dose: 225.0 mg/kg/injection, schedule: Q01DX001 (ip), vehicle: water 110 % of control | endpoint: mean survival time, dose: 250.0 mg/kg/injection, schedule: Q01DX001 (ip), vehicle: saline 109 % of control | endpoint: mean survival time, dose: 250.0 mg/kg/injection, schedule: Q01DX Z (ip), vehicle: saline 95 % of control | endpoint: mean survival time, dose: 270.0 mg/kg/injection, schedule: Q01DX009 (ip), vehicle: saline 115 % of control | endpoint: mean survival time, dose: 270.0 mg/kg/injection, schedule: Q## X009 (ip), vehicle: saline 115 % of control | endpoint: mean survival time, dose: 300.0 mg/kg/injection, schedule: Q02DX010 (ip), vehicle: other 108 % of control | endpoint: mean survival time, dose: 320.0 mg/kg/injection, schedule: Q01DX009 (ip), vehicle: saline 101 % of control and 108 % of control | endpoint: mean survival time, dose: 320.0 mg/kg/injection, schedule: Q01DX009 (oral), vehicle: saline 93 % of control | endpoint: mean survival time, dose: 335.0 mg/kg/injection, schedule: Q01DX001 (ip), vehicle: saline 115 % of control | endpoint: mean survival time, dose: 350.0 mg/kg/injection, schedule: Q01DX Z (ip), vehicle: saline 104 % of control | endpoint: mean survival time, dose: 375.0 mg/kg/injection, schedule: Q04DX003 (ip), vehicle: saline 112 % of control | endpoint: mean survival time, dose: 400.0 mg/kg/injection, schedule: Q01DX001 (ip), vehicle: saline 116 % of control | endpoint: mean survival time, dose: 400.0 mg/kg/injection, schedule: Q01DX009 (ip), vehicle: saline 102 % of control | endpoint: mean survival time, dose: 400.0 mg/kg/injection, schedule: Q01DX Z (oral), vehicle: saline 105 % of control | endpoint: mean survival time, dose: 400.0 mg/kg/injection, schedule: Q02DX009 (ip), vehicle: saline 100 % of control | endpoint: mean survival time, dose: 450.0 mg/kg/injection, schedule: Q02DX010 (ip), vehicle: carboxymethylcellulose (CMC) 113 % of control | endpoint: mean survival time, dose: 450.0 mg/kg/injection, schedule: Q02DX010 (ip), vehicle: other 92 % of control | endpoint: mean survival time, dose: 500.0 mg/kg/injection, schedule: Q04DX003 (ip), vehicle: saline 105 % of control | endpoint: mean survival time, dose: 640.0 mg/kg/injection, schedule: Q01DX009 (ip), vehicle: saline 95 % of control | endpoint: mean survival time, dose: 640.0 mg/kg/injection, schedule: Q01DX009 (oral), vehicle: saline 96 % of control | endpoint: mean survival time, dose: 700.0 mg/kg/injection, schedule: Q07DX003 (ip), vehicle: saline 111 % of control | endpoint: mean survival time, dose: 714.0 mg/kg/injection, schedule: Q02DX008 (ip), vehicle: saline 113 % of control | endpoint: mean survival time, dose: 750.0 mg/kg/injection, schedule: Q01DX001 (ip), vehicle: saline 112 % of control | endpoint: mean survival time, dose: 800.0 mg/kg/injection, schedule: Q01DX001 (ip), vehicle: water 108 % of control | endpoint: mean survival time, dose: 800.0 mg/kg/injection, schedule: Q01DX Z (oral), vehicle: saline 108 % of control | endpoint: mean survival time, dose: 800.0 mg/kg/injection, schedule: Q04DX003 (ip), vehicle: saline 113 % of control | endpoint: mean survival time, dose: 800.0 mg/kg/injection, schedule: Q04DX005 (ip), vehicle: saline 114 % of control | endpoint: mean survival time, dose: 1071.0 mg/kg/injection, schedule: Q02DX008 (ip), vehicle: saline 104 % of control | endpoint: mean survival time, dose: 1344.0 mg/kg/injection, schedule: Q## X032 (ip), vehicle: water 107 % of control | endpoint: median survival time, dose: 160.0 mg/kg/injection, schedule: Q01DX009 (ip), vehicle: saline 100 % of control | endpoint: median survival time, dose: 320.0 mg/kg/injection, schedule: Q01DX009 (ip), vehicle: saline 106 % of control
